According to patent publication US9757375B2, “Compounds that inhibit human DNA ligases and methods of treating cancer” (University of Maryland, Baltimore, priority 2007, dated 2017):

Assays:
[1] = test system: Human DNA ligases I, III and IV and T4 DNA ligase; test: Step 2 of the ligation reaction: DNA-AMP (DNA-adenylate) formation on non-ligatable nick; type: biochemical
Description: To analyze step 2 of the ligation reaction, labeled ligase-AMP intermediates (10 pmol (22)) were incubated overnight at 25° C. with an unlabeled nonligatable version (dideoxy residue at the 3′-terminus of the nick) of the DNA oligonucleotide substrate (10 pmol), either in the presence or absence of the ligase inhibitors (100 μmol/L).
Since the final two steps of the ligation reaction involve interactions with DNA, we examined the effects of the ligase inhibitors on the second (FIG. 3B) (The labeled ligase-adenylate form of human DNA ligases I, III and IV and T4 DNA ligase were incubated with a linear DNA substrate containing a single non-ligatable nick in the absence or presence of compounds 67, 82 and 189 (100 μM). After separation by denaturing gel electrophoresis, the labeled DNA-AMP complex was detected by phosphorimaging (26)) and third steps (FIG. 3C) of the ligation reaction using established assays (25,26) (Non-adenylated human DNA ligases I, III and IV and T4 DNA ligase were incubated with labeled DNA-AMP in the absence or presence of compounds 67, 82 and 189 (100 μM). After separation by denaturing gel electrophoresis, labeled ligated DNA was detected by phosphorimaging (25)).

[2] = test system: MCF10A, MCF7, HCT116, and HeLa cells; test: Cell viability after 6 days on cell panel (FIG. 8); type: cell-based, human; conditions: FIG. 8, 6 days viability; MCF7 colonies, cell cycle
Description: FIG. 8. […] A, MCF10A (▪), MCF7 (♦), HCT116 (▴), and HeLa (upsidedown triangle) cells were plated in the absence or presence of L82 (left), L67 (middle), and L189 (right). After 6 days, cell viability was measured and is expressed as a percentage of the value obtained with untreated cells. B, MCF7 cells were plated out in the absence or presence of L82 (top) and L67 (bottom) at the indicated concentrations. After 2 weeks, colonies were stained with crystal violet. C, after serum starvation for 4 days, MCF 7 cells were returned to serum-containing media either without (▪) or with 50 μmol/L of L82 (●). The cell cycle distribution at various time intervals was determined by fluorescence-activated cell sorting. D, asynchronous populations of MCF cells were either untreated (top) or treated with L82 at 10 μmol/L (middle) and 50 μmol/L (bottom). After 3 days, tubulin and DNA were visualized by fluorescence microscopy (bars, […]).

Row | SMILES | inhibition of step 2 of the ligation reaction ([1]; 100 μM, FIG. 3B) | Mechanism: ligation step inhibited (2nd step) ([1]; Table 5A) [nd] | effect on cell viability / growth, in words [2]
1 | Nc1nc(S)nc(O)c1/N=C/c1ccccc1 [Compound 189] | inhibits step 2 | 2 | –
2 | O=c1[nH]ncc(N/N=C\c2ccc(O)c([N+](=O)[O-])c2)c1Cl [Compound 82] | – | – | cytostatic effect
